From the supplement of paper PMC11451515

Columns and labels:
Conditions in all cases: 48 h
SEM cells [1] = assay: AUC of viability dose-response curve (% viability x log10 dose units); higher = less sensitive
Outline: (§1)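 Leukemia cells adapted to each medium were seeded at 500 or 1000 cells/well in 1536-well plates and dosed with library compounds in DMSO at 11 threefold doses from 47 μM to 0.79 nM for 48 h at 37°C. CellTiter-Glo One luminescence was normalised per plate to DMSO and cell-free wells, then fitted with a four-parameter log-logistic model over log10 doses. Area under the curve was taken from this fit by the trapezoidal rule, with curves above full viability scaled and curves failing quality control removed.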

P12-Ichikawa [2] = assay: as above
Outline: as §1

NOMO1 [3] = assay: as above
Outline: as §1

SEM cells [4] = assay: cell viability relative to DMSO control; higher = less cytotoxic
Outline: (§2)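 Library compounds in DMSO were pin-dosed in an 11-point threefold series (47 μM to 0.79 nM) onto leukemia cells in 1536-well plates (5 μl). Plates held 500 cells/well of NOMO1 or SEM or 1000 cells/well of P12-Ichikawa, each adapted for at least four passages in each medium. Luminescence was read with CellTiter-Glo One after 48 h at 37°C. Viability means the per-plate percentage relative to DMSO wells, using cell-free wells as background.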

P12-Ichikawa [5] = assay: as above
Outline: as §2

NOMO1 [6] = assay: as above
Outline: as §2

c1ccc2c(Cc3c[nH]c4ccccc34)c[nH]c2c1
AUC of viability dose-response curve
Conditions | NOMO1 [3] | P12-Ichikawa [2] | SEM cells [1]
HPLM + 10% dialyzed FBS | 440 | 434 | 385
RPMI 5 mM glucose + 10% FBS | 434 | 420 | 396
RPMI 5 mM glucose + 10% dialyzed FBS | 444 | 417 | 376

cell viability [%]
Conditions | NOMO1 [6] | P12-Ichikawa [5] | SEM cells [4]
HPLM + 10% dialyzed FBS, 0.000781 µM | 95 | 94.9 | 93.8
HPLM + 10% dialyzed FBS, 0.00234 µM | 106 | 101 | 95.3
HPLM + 10% dialyzed FBS, 0.00702 µM | 108 | 93.7 | 97.5
HPLM + 10% dialyzed FBS, 0.0211 µM | 93.6 | 95.8 | 89.4
HPLM + 10% dialyzed FBS, 0.0632 µM | 112 | 97 | 88.7
HPLM + 10% dialyzed FBS, 0.19 µM | 112 | 95.4 | 82.2
HPLM + 10% dialyzed FBS, 0.569 µM | 95.5 | 95.1 | 73.8
HPLM + 10% dialyzed FBS, 1.71 µM | 89.7 | 91.1 | 80.3
HPLM + 10% dialyzed FBS, 5.12 µM | 87.4 | 89.7 | 78.9
HPLM + 10% dialyzed FBS, 15.4 µM | 80.4 | 87.4 | 62.1
HPLM + 10% dialyzed FBS, 46.1 µM | 54 | 29.9 | 18.6
RPMI 5 mM glucose + 10% FBS, 0.000781 µM | 89.8 | 100 | 106
RPMI 5 mM glucose + 10% FBS, 0.00234 µM | 98.3 | 93.3 | 92.9
RPMI 5 mM glucose + 10% FBS, 0.00702 µM | 87.8 | 95 | 96
RPMI 5 mM glucose + 10% FBS, 0.0211 µM | 101 | 92.2 | 104
RPMI 5 mM glucose + 10% FBS, 0.0632 µM | 97.7 | 82.2 | 90.3
RPMI 5 mM glucose + 10% FBS, 0.19 µM | 86.8 | 90.4 | 81.1
RPMI 5 mM glucose + 10% FBS, 0.569 µM | 96.1 | 86.7 | 73.8
RPMI 5 mM glucose + 10% FBS, 1.71 µM | 89.8 | 91.2 | 78.6
RPMI 5 mM glucose + 10% FBS, 5.12 µM | 85.2 | 88.7 | 76.4
RPMI 5 mM glucose + 10% FBS, 15.4 µM | 85.8 | 89.3 | 71.5
RPMI 5 mM glucose + 10% FBS, 46.1 µM | 78.9 | 32.8 | 14.6
RPMI 5 mM glucose + 10% dialyzed FBS, 0.000781 µM | 99 | 86 | 103
RPMI 5 mM glucose + 10% dialyzed FBS, 0.00234 µM | 92 | 94.3 | 99
RPMI 5 mM glucose + 10% dialyzed FBS, 0.00702 µM | 106 | 92.2 | 109
RPMI 5 mM glucose + 10% dialyzed FBS, 0.0211 µM | 104 | 84.8 | 101
RPMI 5 mM glucose + 10% dialyzed FBS, 0.0632 µM | 93.3 | 89.6 | 73.2
RPMI 5 mM glucose + 10% dialyzed FBS, 0.19 µM | 97.7 | 92 | 82.7
RPMI 5 mM glucose + 10% dialyzed FBS, 0.569 µM | 93.2 | 96.8 | 72.3
RPMI 5 mM glucose + 10% dialyzed FBS, 1.71 µM | 94.2 | 94 | 74.7
RPMI 5 mM glucose + 10% dialyzed FBS, 5.12 µM | 88.5 | 86.3 | 68.3
RPMI 5 mM glucose + 10% dialyzed FBS, 15.4 µM | 84 | 85.2 | 56.1
RPMI 5 mM glucose + 10% dialyzed FBS, 46.1 µM | 57.1 | 38 | 15.8
